Laboratory results from patent US7192924B2, “Corticotropin releasing factor 2 receptor agonists” (priority 2002, dated 2007).
pEC50: −log10 of the molar value. Peptide text beside a SMILES is read from it.

How the values were obtained:
[1] = molecular target: T1, CRF1R (Homo sapiens, UniProt P34998); test: CRF1R agonist activity (EC50, Emax), called comparative CRF binding; assay type: cell-based; conditions: read-out: CRF1R EC50
T1 sequence (P34998 24-415): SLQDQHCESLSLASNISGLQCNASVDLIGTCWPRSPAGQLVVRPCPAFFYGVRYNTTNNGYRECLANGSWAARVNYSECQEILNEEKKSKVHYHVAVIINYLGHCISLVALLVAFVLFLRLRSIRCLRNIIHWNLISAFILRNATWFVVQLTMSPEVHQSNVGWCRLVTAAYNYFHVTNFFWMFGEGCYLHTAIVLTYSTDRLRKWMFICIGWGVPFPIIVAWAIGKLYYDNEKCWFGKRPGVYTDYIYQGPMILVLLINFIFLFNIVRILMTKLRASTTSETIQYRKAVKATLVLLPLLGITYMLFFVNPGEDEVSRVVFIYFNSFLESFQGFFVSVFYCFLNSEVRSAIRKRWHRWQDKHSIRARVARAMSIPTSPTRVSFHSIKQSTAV
Method in brief: (§1)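 Cells expressing only CRF1R or only CRF2R (or recombinant receptor) are contacted with peptide or vehicle control. Receptor activation is read as cAMP induction, measured in cell lysates or via a cAMP-responsive-element reporter gene such as luciferase.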

[2] = molecular target: T2, CRF2R (Homo sapiens, UniProt Q13324); test: CRF2R agonist activity (EC50, Emax), called comparative CRF binding; assay type: cell-based; conditions: read-out: CRF2R EC50
T2 sequence (Q13324 1-411): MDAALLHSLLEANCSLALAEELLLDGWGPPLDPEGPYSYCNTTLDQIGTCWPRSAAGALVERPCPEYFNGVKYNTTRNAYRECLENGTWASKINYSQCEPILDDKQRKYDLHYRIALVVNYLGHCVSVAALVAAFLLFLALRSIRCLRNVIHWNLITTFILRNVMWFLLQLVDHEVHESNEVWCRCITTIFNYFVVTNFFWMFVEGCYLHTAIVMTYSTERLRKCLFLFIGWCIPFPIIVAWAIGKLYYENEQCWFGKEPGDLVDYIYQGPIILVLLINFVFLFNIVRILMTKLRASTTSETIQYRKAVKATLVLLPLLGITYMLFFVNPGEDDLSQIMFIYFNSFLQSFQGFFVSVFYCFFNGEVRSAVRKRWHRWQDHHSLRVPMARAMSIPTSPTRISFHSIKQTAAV
Method in brief: as §1

SMILES	pEC50 [1]	pEC50 [2]
CC[C@H](C)[C@H](NC(=O)[C@H](CCCNC(=N)N)NC(=O)[C@H](C)NC(=O)[C@H](CC(N)=O)NC(=O)[C@H](CCC(N)=O)NC(=O)[C@H](CCC(=O)O)NC(=O)[C@H](C)NC(=O)[C@H](CCCNC(=N)N)NC(=O)[C@H](CCC(=O)O)NC(=O)[C@H](CCCNC(=N)N)NC(=O)[C@H](CCC(N)=O)NC(=O)[C@H](CO)NC(=O)[C@H](CCC(N)=O)NC(=O)[C@@H](NC(=O)[C@H](CCCNC(=N)N)NC(=O)[C@H](C)NC(=O)[C@H](CC(C)C)NC(=O)[C@H](CCC(=O)O)NC(=O)[C@H](CC(C)C)NC(=O)[C@H](CC(C)C)NC(=O)[C@@H](NC(=O)[C@H](CCCNC(=N)N)NC(=O)[C@H](CC(C)C)NC(=O)[C@H](CC(C)C)NC(=O)[C@H](CC(C)C)NC(=O)[C@H](CC(C)C)NC(=O)[C@@H]1CCCN1C(=O)[C@H](CC(C)C)NC(=O)[C@H](CC(=O)O)NC(=O)[C@@H](NC(=O)[C@H](CO)NC(=O)[C@H](CC(C)C)NC(=O)[C@H](CO)NC(=O)[C@@H]1CCCN1C(=O)[C@H](CC(N)=O)NC(=O)[C@@H](N)CC(=O)O)[C@@H](C)CC)[C@@H](C)O)[C@@H](C)O)C(=O)N[C@@H](Cc1ccccc1)C(=O)N[C@@H](C)C(=O)N[C@@H](CCCNC(=N)N)C(=O)N[C@H](C(N)=O)C(C)C [compound 340] (H-DNPSLSIDLPLLLLRTLLELARTQSQRERAEQNARIFARV-NH2; N-terminus assumed)	6.13	8.10
CC[C@H](C)[C@H](NC(=O)[C@H](CCCNC(=N)N)NC(=O)[C@H](C)NC(=O)[C@H](CC(N)=O)NC(=O)[C@H](CCC(N)=O)NC(=O)[C@H](CCC(=O)O)NC(=O)[C@H](C)NC(=O)[C@H](CCCNC(=N)N)NC(=O)[C@H](CCC(=O)O)NC(=O)[C@H](CCCNC(=N)N)NC(=O)[C@H](CCC(N)=O)NC(=O)[C@H](CO)NC(=O)[C@H](CCC(N)=O)NC(=O)[C@@H](NC(=O)[C@H](CCCCN)NC(=O)[C@H](CCC(=O)O)NC(=O)[C@H](CC(C)C)NC(=O)[C@H](CCC(=O)O)NC(=O)[C@H](CC(C)C)NC(=O)[C@H](CC(C)C)NC(=O)[C@@H](NC(=O)[C@H](CCCNC(=N)N)NC(=O)[C@H](CC(C)C)NC(=O)[C@H](CC(C)C)NC(=O)[C@H](CC(C)C)NC(=O)[C@H](CC(C)C)NC(=O)[C@@H]1CCCN1C(=O)[C@H](CC(C)C)NC(=O)[C@H](CC(=O)O)NC(=O)[C@@H](NC(=O)[C@H](CO)NC(=O)[C@H](CC(C)C)NC(=O)[C@H](CO)NC(=O)[C@@H]1CCCN1C(=O)[C@H](CC(N)=O)NC(=O)[C@@H](N)CC(=O)O)[C@@H](C)CC)[C@@H](C)O)[C@@H](C)O)C(=O)N[C@@H](Cc1ccccc1)C(=O)N[C@@H](C)C(=O)N[C@@H](CCCNC(=N)N)C(=O)N[C@H](C(N)=O)C(C)C [compound 341] (H-DNPSLSIDLPLLLLRTLLELEKTQSQRERAEQNARIFARV-NH2; N-terminus assumed)	6.07	8.05
CC[C@H](C)[C@H](NC(=O)[C@H](C)NC(=O)[C@H](CC(N)=O)NC(=O)[C@H](CCC(N)=O)NC(=O)[C@H](CCC(=O)O)NC(=O)[C@H](C)NC(=O)[C@H](CCCNC(=N)N)NC(=O)[C@H](CCC(=O)O)NC(=O)[C@H](CCCNC(=N)N)NC(=O)[C@H](CCC(N)=O)NC(=O)[C@H](CO)NC(=O)[C@H](CCC(N)=O)NC(=O)[C@@H](NC(=O)[C@H](CCCCN)NC(=O)[C@H](CCC(=O)O)NC(=O)[C@H](CC(C)C)NC(=O)[C@H](CCC(=O)O)NC(=O)[C@H](CC(C)C)NC(=O)[C@H](CC(C)C)NC(=O)[C@@H](NC(=O)[C@H](CCCNC(=N)N)NC(=O)[C@H](CC(C)C)NC(=O)[C@H](CC(C)C)NC(=O)[C@H](Cc1ccccc1)NC(=O)[C@H](CC(C)C)NC(=O)[C@@H]1CCCN1C(=O)[C@H](CC(C)C)NC(=O)[C@H](CC(=O)O)NC(=O)[C@@H](NC(=O)[C@H](CO)NC(=O)[C@H](CC(C)C)NC(=O)[C@H](CO)NC(=O)[C@@H]1CCCN1C(=O)[C@H](CC(N)=O)NC(=O)[C@@H](N)CC(=O)O)[C@@H](C)CC)[C@@H](C)O)[C@@H](C)O)C(=O)N[C@H](C(=O)N[C@@H](Cc1ccccc1)C(=O)N[C@@H](C)C(=O)N[C@@H](CO)C(=O)N[C@H](C(N)=O)C(C)C)[C@@H](C)CC [compound 343] (H-DNPSLSIDLPLFLLRTLLELEKTQSQRERAEQNAIIFASV-NH2; N-terminus assumed)	6.11	7.87
CC[C@H](C)[C@H](NC(=O)[C@H](C)NC(=O)[C@H](CC(N)=O)NC(=O)[C@H](CCC(N)=O)NC(=O)[C@H](CCC(=O)O)NC(=O)[C@H](C)NC(=O)[C@H](CCCNC(=N)N)NC(=O)[C@H](CCC(=O)O)NC(=O)[C@H](CCCNC(=N)N)NC(=O)[C@H](CCC(N)=O)NC(=O)[C@H](CO)NC(=O)[C@H](CCC(N)=O)NC(=O)[C@@H](NC(=O)[C@H](CCCCN)NC(=O)[C@H](CCC(=O)O)NC(=O)[C@H](CC(C)C)NC(=O)[C@H](CCC(=O)O)NC(=O)[C@H](CC(C)C)NC(=O)[C@H](CC(C)C)NC(=O)[C@@H](NC(=O)[C@H](CCCNC(=N)N)NC(=O)[C@H](CC(C)C)NC(=O)[C@H](CC(C)C)NC(=O)[C@H](CC(C)C)NC(=O)[C@H](CC(C)C)NC(=O)[C@@H]1CCCN1C(=O)[C@H](CC(C)C)NC(=O)[C@H](CC(=O)O)NC(=O)[C@@H](NC(=O)[C@H](CO)NC(=O)[C@H](CC(C)C)NC(=O)[C@H](CO)NC(=O)[C@@H]1CCCN1)[C@@H](C)CC)[C@@H](C)O)[C@@H](C)O)C(=O)N[C@H](C(=O)N[C@@H](Cc1ccccc1)C(=O)N[C@@H](C)C(=O)N[C@@H](CO)C(=O)N[C@H](C(N)=O)C(C)C)[C@@H](C)CC [compound 344] (H-PSLSIDLPLLLLRTLLELEKTQSQRERAEQNAIIFASV-NH2)	6.19	8.37
CC[C@H](C)[C@H](NC(=O)[C@H](C)NC(=O)[C@H](CC(N)=O)NC(=O)[C@H](CCC(N)=O)NC(=O)[C@H](CCC(=O)O)NC(=O)[C@H](C)NC(=O)[C@H](CCCNC(=N)N)NC(=O)[C@H](CCC(=O)O)NC(=O)[C@H](CCCNC(=N)N)NC(=O)[C@H](CCC(N)=O)NC(=O)[C@H](CO)NC(=O)[C@H](CCC(N)=O)NC(=O)[C@@H](NC(=O)[C@H](CCCCN)NC(=O)[C@H](CCC(=O)O)NC(=O)[C@H](CC(C)C)NC(=O)[C@H](CCC(=O)O)NC(=O)[C@H](CC(C)C)NC(=O)[C@H](CC(C)C)NC(=O)[C@@H](NC(=O)[C@H](CCCNC(=N)N)NC(=O)[C@H](CC(C)C)NC(=O)[C@H](CC(C)C)NC(=O)[C@H](CC(C)C)NC(=O)[C@H](CC(C)C)NC(=O)[C@@H]1CCCN1C(=O)[C@H](CC(C)C)NC(=O)[C@H](CC(=O)O)NC(=O)[C@@H](NC(=O)[C@H](CO)NC(=O)[C@H](CC(C)C)NC(=O)[C@H](CO)NC(=O)[C@@H]1CCCN1C(=O)[C@H](CC(N)=O)NC(=O)[C@@H](N)CC(=O)O)[C@@H](C)CC)[C@@H](C)O)[C@@H](C)O)C(=O)N[C@H](C(=O)N[C@@H](Cc1ccccc1)C(=O)N[C@@H](C)C(=O)N[C@@H](CO)C(=O)N[C@H](C(N)=O)C(C)C)[C@@H](C)CC [compound 347] (H-DNPSLSIDLPLLLLRTLLELEKTQSQRERAEQNAIIFASV-NH2)	≤ 6.00	7.65
CC[C@H](C)[C@H](N)C(=O)N[C@H](C(=O)N[C@@H](CC(C)C)C(=O)N[C@@H](CO)C(=O)N[C@@H](CC(C)C)C(=O)N[C@@H](CC(=O)O)C(=O)N[C@H](C(=O)N1CCC[C@H]1C(=O)N[C@H](C(=O)NCC(=O)N[C@@H](CC(C)C)C(=O)N[C@@H](CC(C)C)C(=O)N[C@@H](CCC(N)=O)C(=O)N[C@H](C(=O)N[C@@H](CC(C)C)C(=O)N[C@@H](CC(C)C)C(=O)N[C@@H](CCC(=O)O)C(=O)N[C@@H](CCC(N)=O)C(=O)N[C@@H](C)C(=O)N[C@@H](CCCNC(=N)N)C(=O)N[C@@H](C)C(=O)N[C@@H](CCCNC(=N)N)C(=O)N[C@@H](C)C(=O)N[C@@H](C)C(=O)N[C@@H](CCCNC(=N)N)C(=O)N[C@@H](CCC(=O)O)C(=O)N[C@@H](CCC(N)=O)C(=O)N[C@@H](C)C(=O)N[C@H](C(=O)N[C@H](C(=O)N[C@@H](CC(N)=O)C(=O)N[C@@H](C)C(=O)N[C@@H](CCCNC(=N)N)C(=O)N[C@H](C(=O)N[C@@H](CC(C)C)C(=O)N[C@@H](C)C(=O)N[C@@H](CCCNC(=N)N)C(=O)N[C@H](C(=O)N[C@@H](CCSC)C(N)=O)C(C)C)[C@@H](C)CC)[C@@H](C)O)[C@@H](C)O)[C@@H](C)CC)[C@@H](C)CC)C(C)C)C(C)C [compound 368] (H-IVLSLDVPIGLLQILLEQARARAAREQATTNARILARVM-NH2)	≤ 6.00	7.30
